For data set [1], the system named is inflammatory oedema of the CFA-injected hind paw. Briefly: Complete Freund adjuvant (CFA) induced paw inflammation (oedema) in the rat, plethysmometer. The class given is in vivo, Sprague-Dawley rats. The following applies: for ml (inflamed paw/normal paw), intensity of oedema: day 3 after CFA, mean ± SD. As to the method:
An inflammation model extensively used and validated in the rat was used for the study.
Sprague-Dawley rats weighing 200-250 grams were used. The animals were housed in groups of 4 to a cage, at the temperature of 22° C.±2° C., with a light-dark cycle of 12/12-hour and unlimited access to food and water. The animals were used after a week's acclimatisation in the housing facility. Each test group consisted of 8 rats.
Inflammation was induced in one limb of the rat by administering a suspension of complete Freund adjuvant (CFA) containing 0.1 mg/0.1 ml of inactivated mycobacterium tuberculosis (H37Ra, ATCC 25177), in paraffin oil and mannide monooleate. The CFA was injected into the plantar surface of the left hind paw of the rat. This method induces reproducible inflammation characterised by oedema and pain.
All the medicaments were administered 3 days after the inflammation was induced with CFA. The Firocoxib was resuspended in a carrier consisting of 0.5% methocel, and administered orally in the volume of 1 ml at the doses of 2.5 and 5 mg/Kg.
The dose of 2.5 mg/Kg was combined with Tramadol at the dose of 4 mg/Kg. Tramadol dissolved in saline was administered by the intraperitoneal route (i.p., 0.2 ml/100 grams of weight) 30 minutes […] the Firocoxib. Inflammatory oedema was evaluated 1 hour after the Tramadol, corresponding to 90 minutes after the Firocoxib. […] The control animals were treated per os with the carrier, and i.p. with the same volume of saline.
The intensity of the oedema was measured on day 3 after intraplantar administration of CFA, 90 minutes after Firocoxib, corresponding to 1 hour after i.p. administration of Tramadol. We chose to evaluate the oedema 3 days after it was induced, because it is largest at this time. The paw swelling (oedema) was evaluated by measuring the volume of both hind paws using a specific instrument, the plethysmometer (7150 plethysmometer, Basile, Comerio, Italy). The results are expressed as the algebraic difference between the volume in ml of the inflamed paw (injected with CFA) and the normal uninflamed paw: the greater the difference, the larger the oedema present.
The values are the mean±SD of 8/10 rats.
The significance of the anti-inflammatory activity was evaluated with the Analysis of Variance (ANOVA) test, followed by the Bonferroni multiple comparison test. ANOVA test is the most suitable statistical test when more than 2 treatment groups are present. It is a restrictive test because it takes account of the variability of all the trial groups.

The next data set deals with T1, COX-1 (Canis lupus familiaris, UniProt Q8HZR1).
T1 sequence (Q8HZR1 28-603): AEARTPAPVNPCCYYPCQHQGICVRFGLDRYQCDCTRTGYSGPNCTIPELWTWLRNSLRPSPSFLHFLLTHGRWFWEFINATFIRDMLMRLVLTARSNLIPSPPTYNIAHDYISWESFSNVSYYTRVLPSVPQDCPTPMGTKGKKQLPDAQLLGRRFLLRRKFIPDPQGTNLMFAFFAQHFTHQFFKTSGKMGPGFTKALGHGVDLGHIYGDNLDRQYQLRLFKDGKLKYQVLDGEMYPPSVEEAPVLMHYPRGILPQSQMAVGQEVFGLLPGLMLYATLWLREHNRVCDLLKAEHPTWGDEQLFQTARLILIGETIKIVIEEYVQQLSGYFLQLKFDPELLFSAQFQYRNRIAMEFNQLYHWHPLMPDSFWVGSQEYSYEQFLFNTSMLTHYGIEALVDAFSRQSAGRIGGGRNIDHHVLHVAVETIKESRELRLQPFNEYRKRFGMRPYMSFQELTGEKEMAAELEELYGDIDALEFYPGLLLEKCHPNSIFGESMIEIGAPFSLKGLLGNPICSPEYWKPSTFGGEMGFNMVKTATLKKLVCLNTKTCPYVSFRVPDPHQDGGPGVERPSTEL
The following applies: dog, low therapeutic doses; cited from earlier work.

For data set [2] the following is noted: cited from earlier work.

As usually defined, the inhibition is how much of the control response was suppressed.

Regarding `CC1(C)OC(=O)C(OCC2CC2)=C1c1ccc(S(C)(=O)=O)cc1` [Firocoxib], the “anti-inflammatory effect (in words)” value in data set [1] (Firocoxib 2.5 mg/kg alone) is given as “completely lost its anti-inflammatory effect”. Further, the “ml (inflamed paw/normal paw), intensity of oedema” value in data set [1] (Firocoxib 2.5 mg/kg p.o. alone, 90 min after Firocoxib) stood at 0.83 ± 0.05 mL; in data set [1] (Firocoxib 5 mg/Kg p.o. alone, 90 min after Firocoxib, p < 0.01 vs saline) it was 0.42 ± 0.08 mL. The inhibition at 5 mg/kg in data set [1] (Rattus norvegicus, Firocoxib 5.0 mg/kg alone) is ~50%. Moreover, the “inhibition of COX-1 (in words)” value at COX-1 is recorded as “do not significantly inhibit COX-1”.

On to `COc1cccc(C2(O)CCCCC2CN(C)C)c1` (centres unmarked) [Tramadol], for which the “anti-inflammatory effect (in words)” value in data set [1] (Tramadol 4 mg/kg alone) was “no anti-inflammatory effect”. The “ml (inflamed paw/normal paw), intensity of oedema” value in data set [1] (Tramadol 4 mg/kg i.p. alone, 60 min after Tramadol) was found to be 0.80 ± 0.06 mL. For the same molecule, in data set [2] (in vivo), the “bond with plasma proteins” value is listed as “low”, the elimination half-life was 1.5 to 7 h and the “time to peak plasma concentration” value is ≤ 2 h. In addition, in data set [2] (oral, regardless of the formulation used), the “absorption after oral administration” value was “very good absorption”.

The record behind these values is US9808433B2, “Combination of a centrally-acting analgesic and a selective cyclooxygenase-2 inhibitor anti-inflammatory agent for the treatment of inflammation and pain in the veterinary field” (FORMEVET S.R.L., priority 2010, dated 2017).
